Measured values: the supplement of paper PMC10307832

What was measured:
Assay in all cases: relative viability (nuclei count vs DMSO), 5 days (fraction); higher = more cells survive
[1] = compound: CC(C)C[C@H](NC(=O)[C@H](Cc1ccccc1)NC(=O)c1cnccn1)B(O)O [Bortezomib] + O=C(CCCCCCC(=O)Nc1ccccc1)NO [Vorinostat] (partner 1 µM)
In short: (§1)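 After 5 days of treatment, lung cancer cells in 1536-well plates were fixed and stained in a single step (final 0.05% Triton X-100, 1% formaldehyde, 1 ug/ml Hoechst) and their nuclei counted on 4× images. Treatment had been applied by pin tool the day after seeding as one drug alone or as a fixed anchor-drug dose with five library-drug doses (not always all listed) in √10 steps. Relative viability is the nuclei count of treated wells divided by that of vehicle wells, and values are medians of duplicate plates.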

[2] = compound: CC(C)C[C@H](NC(=O)[C@H](Cc1ccccc1)NC(=O)c1cnccn1)B(O)O [Bortezomib] + CC(=O)c1c(C)c2cnc(Nc3ccc(N4CCNCC4)cn3)nc2n(C2CCCC2)c1=O [Palbociclib] (partner 0.5 µM)
In short: as §1

[3] = compound: COC1=CC(c2cc3ccccc3[nH]2)=N/C1=C\c1[nH]c(C)cc1C [Obatoclax] + C[C@]1(O)C[C@@H](c2nc(-c3ccc4ccc(-c5ccccc5)nc4c3)c3c(N)nccn32)C1 [Linsitinib] (partner 1 µM)
In short: as §1

[4] = compound: CC1=CC(=NN1)NC2=CC(=NC(=N2)/C=C/C3=CC=CC=C3)N4CCN(CC4)C + COc1cccc2cc(-c3nc([C@H]4CC[C@H](C(=O)O)CC4)n4ncnc(N)c34)[nH]c12 [OSI-027] (partner 0.5 µM)
In short: as §1

NCI-H727
relative viability ([1]; first compound 0.0002 µM): 1.29
relative viability ([1]; first compound 0.000632 µM): 1.06
relative viability ([1]; first compound 0.002 µM): 1.36
relative viability ([1]; first compound 0.006325 µM): 1.1
relative viability ([1]; first compound 0.02 µM): 1.02
relative viability ([2]; first compound 0.0002 µM): 0.751
relative viability ([2]; first compound 0.000632 µM): 0.603
relative viability ([2]; first compound 0.002 µM): 0.623
relative viability ([2]; first compound 0.006325 µM): 0.684
relative viability ([2]; first compound 0.02 µM): 0.23
relative viability ([3]; first compound 0.01 µM): 0.372
relative viability ([3]; first compound 0.03162 µM): 0.28
relative viability ([3]; first compound 0.1 µM): 0.343
relative viability ([3]; first compound 0.3162 µM): 0.267
relative viability ([3]; first compound 1 µM): 0.231
relative viability ([4]; first compound 0.08 µM): 0.608
relative viability ([4]; first compound 0.253 µM): 0.485
relative viability ([4]; first compound 0.8 µM): 0.678
relative viability ([4]; first compound 2.53 µM): 0.398
relative viability ([4]; first compound 8 µM): 0.278

NCI-H838
relative viability ([1]; first compound 0.0002 µM): 0.683
relative viability ([1]; first compound 0.000632 µM): 0.752
relative viability ([1]; first compound 0.002 µM): 0.676
relative viability ([1]; first compound 0.006325 µM): 0.157
relative viability ([1]; first compound 0.02 µM): 0.144
relative viability ([2]; first compound 0.0002 µM): 0.211
relative viability ([2]; first compound 0.000632 µM): 0.23
relative viability ([2]; first compound 0.002 µM): 0.191
relative viability ([2]; first compound 0.006325 µM): 0.136
relative viability ([2]; first compound 0.02 µM): 0.103
relative viability ([3]; first compound 0.01 µM): 0.984
relative viability ([3]; first compound 0.03162 µM): 1.06
relative viability ([3]; first compound 0.1 µM): 0.862
relative viability ([3]; first compound 0.3162 µM): 0.717
relative viability ([3]; first compound 1 µM): 0.935
relative viability ([4]; first compound 0.08 µM): 0.346
relative viability ([4]; first compound 0.253 µM): 0.413
relative viability ([4]; first compound 0.8 µM): 0.385
relative viability ([4]; first compound 2.53 µM): 0.208
relative viability ([4]; first compound 8 µM): 0.103

NCI-H1355
relative viability ([1]; first compound 0.0002 µM): 0.632
relative viability ([1]; first compound 0.000632 µM): 0.657
relative viability ([1]; first compound 0.002 µM): 0.696
relative viability ([1]; first compound 0.006325 µM): 0.416
relative viability ([1]; first compound 0.02 µM): 0.121
relative viability ([2]; first compound 0.0002 µM): 0.394
relative viability ([2]; first compound 0.000632 µM): 0.4
relative viability ([2]; first compound 0.002 µM): 0.398
relative viability ([2]; first compound 0.006325 µM): 0.24
relative viability ([2]; first compound 0.02 µM): 0.138
relative viability ([3]; first compound 0.01 µM): 0.867
relative viability ([3]; first compound 0.03162 µM): 0.87
relative viability ([3]; first compound 0.1 µM): 0.802
relative viability ([3]; first compound 0.3162 µM): 0.739
relative viability ([3]; first compound 1 µM): 0.75
relative viability ([4]; first compound 0.08 µM): 0.378
relative viability ([4]; first compound 0.253 µM): 0.374
relative viability ([4]; first compound 0.8 µM): 0.389
relative viability ([4]; first compound 2.53 µM): 0.213
relative viability ([4]; first compound 8 µM): 0.105

NCI-H1395
relative viability ([1]; first compound 0.0002 µM): 0.762
relative viability ([1]; first compound 0.000632 µM): 0.547
relative viability ([1]; first compound 0.002 µM): 0.515
relative viability ([1]; first compound 0.006325 µM): 0.301
relative viability ([1]; first compound 0.02 µM): 0.306
relative viability ([2]; first compound 0.0002 µM): 0.591
relative viability ([2]; first compound 0.000632 µM): 0.614
relative viability ([2]; first compound 0.002 µM): 0.38
relative viability ([2]; first compound 0.006325 µM): 0.31
relative viability ([2]; first compound 0.02 µM): 0.253
relative viability ([3]; first compound 0.01 µM): 1.23
relative viability ([3]; first compound 0.03162 µM): 0.922
relative viability ([3]; first compound 0.1 µM): 0.884
relative viability ([3]; first compound 0.3162 µM): 0.926
relative viability ([3]; first compound 1 µM): 0.526
relative viability ([4]; first compound 0.08 µM): 0.56
relative viability ([4]; first compound 0.253 µM): 0.621
relative viability ([4]; first compound 0.8 µM): 0.625
relative viability ([4]; first compound 2.53 µM): 0.387
relative viability ([4]; first compound 8 µM): 0.26

NCI-H1437
relative viability ([1]; first compound 0.0002 µM): 0.782
relative viability ([1]; first compound 0.000632 µM): 0.875
relative viability ([1]; first compound 0.002 µM): 0.555
relative viability ([1]; first compound 0.006325 µM): 0.219
relative viability ([1]; first compound 0.02 µM): 0.172
relative viability ([2]; first compound 0.0002 µM): 0.305
relative viability ([2]; first compound 0.000632 µM): 0.35
relative viability ([2]; first compound 0.002 µM): 0.319
relative viability ([2]; first compound 0.006325 µM): 0.135
relative viability ([2]; first compound 0.02 µM): 0.118
relative viability ([3]; first compound 0.01 µM): 1.01
relative viability ([3]; first compound 0.03162 µM): 0.988
relative viability ([3]; first compound 0.1 µM): 0.979
relative viability ([3]; first compound 0.3162 µM): 0.912
relative viability ([3]; first compound 1 µM): 0.705
relative viability ([4]; first compound 0.08 µM): 0.84
relative viability ([4]; first compound 0.253 µM): 0.89
relative viability ([4]; first compound 0.8 µM): 0.947
relative viability ([4]; first compound 2.53 µM): 0.737
relative viability ([4]; first compound 8 µM): 0.164

NCI-H1651
relative viability ([1]; first compound 0.0002 µM): 0.568
relative viability ([1]; first compound 0.000632 µM): 0.571
relative viability ([1]; first compound 0.002 µM): 0.534
relative viability ([1]; first compound 0.006325 µM): 0.587
relative viability ([1]; first compound 0.02 µM): 0.134
relative viability ([2]; first compound 0.0002 µM): 0.505
relative viability ([2]; first compound 0.000632 µM): 0.504
relative viability ([2]; first compound 0.002 µM): 0.401
relative viability ([2]; first compound 0.006325 µM): 0.113
relative viability ([2]; first compound 0.02 µM): 0.103
relative viability ([3]; first compound 0.01 µM): 0.915
relative viability ([3]; first compound 0.03162 µM): 0.961
relative viability ([3]; first compound 0.1 µM): 0.91
relative viability ([3]; first compound 0.3162 µM): 0.432
relative viability ([3]; first compound 1 µM): 0.271
relative viability ([4]; first compound 0.08 µM): 0.613
relative viability ([4]; first compound 0.253 µM): 0.749
relative viability ([4]; first compound 0.8 µM): 0.63
relative viability ([4]; first compound 2.53 µM): 0.293
relative viability ([4]; first compound 8 µM): 0.133

NCI-H1666
relative viability ([1]; first compound 0.0002 µM): 1.03
relative viability ([1]; first compound 0.000632 µM): 1.04
relative viability ([1]; first compound 0.002 µM): 1.11
relative viability ([1]; first compound 0.006325 µM): 0.539
relative viability ([1]; first compound 0.02 µM): 0.5
relative viability ([2]; first compound 0.0002 µM): 0.62
relative viability ([2]; first compound 0.000632 µM): 0.699
relative viability ([2]; first compound 0.002 µM): 0.608
relative viability ([2]; first compound 0.006325 µM): 0.569
relative viability ([2]; first compound 0.02 µM): 0.472
relative viability ([3]; first compound 0.01 µM): 0.876
relative viability ([3]; first compound 0.03162 µM): 0.822
relative viability ([3]; first compound 0.1 µM): 0.745
relative viability ([3]; first compound 0.3162 µM): 0.313
relative viability ([3]; first compound 1 µM): 0.275
relative viability ([4]; first compound 0.08 µM): 0.822
relative viability ([4]; first compound 0.253 µM): 0.921
relative viability ([4]; first compound 0.8 µM): 0.86
relative viability ([4]; first compound 2.53 µM): 0.79
relative viability ([4]; first compound 8 µM): 0.432

NCI-H1734
relative viability ([1]; first compound 0.0002 µM): 0.832
relative viability ([1]; first compound 0.000632 µM): 0.845
relative viability ([1]; first compound 0.002 µM): 0.635
relative viability ([1]; first compound 0.006325 µM): 0.115
relative viability ([1]; first compound 0.02 µM): 0.0944
relative viability ([2]; first compound 0.0002 µM): 0.38
relative viability ([2]; first compound 0.000632 µM): 0.342
relative viability ([2]; first compound 0.002 µM): 0.266
relative viability ([2]; first compound 0.006325 µM): 0.108
relative viability ([2]; first compound 0.02 µM): 0.0922
relative viability ([3]; first compound 0.01 µM): 0.808
relative viability ([3]; first compound 0.03162 µM): 0.799
relative viability ([3]; first compound 0.3162 µM): 0.728
relative viability ([3]; first compound 1 µM): 0.749
relative viability ([4]; first compound 0.08 µM): 0.637
relative viability ([4]; first compound 0.253 µM): 0.527
relative viability ([4]; first compound 0.8 µM): 0.475
relative viability ([4]; first compound 2.53 µM): 0.234
relative viability ([4]; first compound 8 µM): 0.139
